Values quoted from earlier work as cited in patent publication US11008566B2, “Method for obtaining antibody” (Chiome Bioscience Inc., priority 2016, dated 2021).

Details: antibody drugs, Non Patent Literatures 1 and 2

Kd: 0.046 nM
Substance: Lucentis: antibody drug (registered trademark), high-affinity antibody
